This assay concerns T cell response of human PBMC to allogenic stimulation by Namalwa cells. The experiment in a line: Mixed Lymphocyte Reaction (proliferation and IFN-γ secretion). It is filed as cell-based. Particulars: 6 days; FIGS. 1-3. On the procedure: This reaction measures the T cell response to allogenic stimulation by a mismatch of class II histocompatability antigens. This is triggered through the T cell receptor and activates the T cell to secrete and proliferate in response to endogenous IL-2. IFN-γ is also made in response to this stimulation and accumulates in the culture medium. Compounds are tested for their ability to block the proliferation and response to antigenic stimulation as well as their ability to produce IFN-γ as follows. A human B cell ine expressing class II antigen, Namalwa (American Type Culture Collection), is incubated for 2 hr at 37° C. in RPMI-10 containing mitomycin C (50 μg/ml). These cells are washed four times by centrifugation and resuspension (10^6 cells/ml) in SF-RPMI medium and are added to the wells of 96-well plate (50 μl/well) as stimulators. Mitomycin treatment prevents these cells from proliferating in the assay. Fresh PBMC are prepared as described above in example 1, but are not activated with PHA. Instead they are resuspended at 10^6 cells/ml and 100 μl is added per well. Dilutions of test compounds are added (50 μl/well) to give a final volume of 200 μl and the plates are incubated for 6 days at 37° C. During the last 18 hr, ^3 H-thymidine (DuPont-NEN- 1 μCi/well) is added as a measure of cell proliferation, cultures are collected using a cell harvester (Packard), and scintillation fluid is added prior to counting in a Packard Top Count scintillation counter. A sample of medium is also collected for measurement of IFN-γ production prior to the addition of ^3 H-thymidine for use as a negative control.

The results in this text go back to patent publication US5880146A, “Inhibition of IL-12-induced IFN-γ synthesis by specific bis-phenol compounds as a method of immune modulation” (Fuji ImmunoPharmaceuticals Corporation, priority 1995, dated 1999).

With `Nc1nc2nn[nH]c2c(=O)[nH]1` [Compound 8-azaguanine, 8-azaguanine, reference compound], the “inhibition of IFN-γ secretion versus cell proliferation (in words)” value is listed as “general immunosuppressant”.
